In brackets after ≈: the same amount, converted by molar mass. Like-named read-outs stand apart in the source and are kept apart here.
Experiments:
Experiment in all cases: MIC determination by in vitro antifungal assay
Type in all cases: cell-based, Candida auris
C. auris AR Bank #389 = test system: C. auris AR Bank #389
Procedure: (§1) The antifungal agent amphotericin B (AmB) was purchased from VWR (Radnor PA, USA). AmB was dissolved in DMSO at a final concentration of 5 mg/mL and was stored at −20° C., protected from light. Candida albicans American Type Culture Collection (ATCC) 10231 (strain A), C. albicans ATCC 64124 (B), and C. albicans ATCC MYA-2876 (C) were obtained from Utah State University. C. albicans ATCC 90819 (D), C. albicans ATCC MYA-2310 (E), C. albicans ATCC MYA-1237 (F), C. albicans ATCC MYA-1003 (G), Candida glabrata ATCC 2001 (H), Candida krusei ATCC 6258 (I), Candida parapsilosis ATCC 22019 (J), Cryptococcus neoformans ATCC MYA-895 (M), Aspergillus terreus ATCC MYA-3633 (N), and Aspergillus flavus ATCC MYA-3631 (0) were obtained from the American Type Culture Collection (ATCC; Manassas, VA, USA). Aspergillus nidulans ATCC 38163 (P) was obtained from University of Kentucky. Clinically derived Aspergillus fumigatus NRRL 163 (Q), A. fumigatus NRRL 5109 (R), and A. fumigatus NRRL 6113 (S) were obtained from Northern Regional Research Laboratory (NRRL). Candida auris 384 (K), C. auris 390 (L), and fungal strains 381-400 (including 10 C. auris (AR Bank #381-390), 3 Candida duobushaemulonii (AR Bank #391, AR Bank #392, and AR Bank #394), 2 Candida haemulonii (AR Bank #393 and AR Bank #395), 1 Kodameae ohmeri (AR Bank #396), 1 C. krusei (AR Bank #397), 1 Candida lusitaniae (AR Bank #398), and 2 Saccharomyces cerevisiae strains (AR Bank #399 and AR Bank #400)) were part of a larger fungal library from the AR Bank maintained by the Centers for Disease Control and Prevention (CDC; Atlanta, GA, USA). Filamentous fungi and yeasts were cultivated at 35° C. in RPMI 1640 medium (with L-glutamine, without sodium bicarbonate, Sigma-Aldrich, St. Louis, MO) buffered to a pH of 7.0 with 0.165 M morpholinepropanesulfonic acid (MOPS) buffer (Sigma-Aldrich). For cytotoxicity assays, HepG2 and the mouse macrophage cell line J774A.1 were obtained from University of Kentucky. The human embryonic kidney cell line, HEK-293, was bought from the ATCC. Mammalian cells were grown in Dulbecco's Modified Eagle's Medium (DMEM) (from VWR) with 10% fetal bovine serum (FBS) (from VWR) and 1% Pen/Strep (from ATCC). Cell lines were cultured at 37° C. with 5% CO2 and passaged by trypsinization with 0.05% trypsin: 0.53 mM EDTA (from Sigma-Aldrich).
(§2) From the actively growing yeast culture, 100 µL were then transferred to 900 μL of RPMI 1640 medium and re-adjusted to achieve OD600 of 0.12 (˜1×10^6 CFU/mL). The cell suspension was further diluted to achieve 1:100 in RPMI 1640 medium.

C. auris AR Bank #381 = test system: C. auris AR Bank #381
Procedure: as §1, §2

C. auris AR Bank #387 = test system: C. auris AR Bank #387
Procedure: as §1, §2

C. auris AR Bank #385 = test system: C. auris AR Bank #385
Procedure: as §1, §2

C. auris AR Bank #386 = test system: C. auris AR Bank #386
Procedure: as §1, §2

C. auris AR Bank #388 = test system: C. auris AR Bank #388
Procedure: as §1, §2

C. auris AR Bank #382 = test system: C. auris AR Bank #382
Procedure: as §1, §2

C. auris AR Bank #383 = test system: C. auris AR Bank #383
Procedure: as §1, §2

[1] = Candidozyma auris, C. auris AR Bank # 389 (Table 2B), read-out: MIC
[2] = Candidozyma auris, C. auris AR Bank # 381 (Table 2B), read-out: MIC
[3] = Candidozyma auris, C. auris AR Bank # 387 (Table 2B), read-out: MIC
[4] = Candidozyma auris, C. auris AR Bank # 385 (Table 2B), read-out: MIC
[5] = Candidozyma auris, C. auris AR Bank # 386 (Table 2B), read-out: MIC
[6] = Candidozyma auris, C. auris AR Bank # 388 (Table 2B), read-out: MIC
[7] = Candidozyma auris, C. auris AR Bank # 382 (Table 2B), read-out: MIC
[8] = Candidozyma auris, C. auris AR Bank # 383 (Table 2B), read-out: MIC
[9] = Candidozyma auris, C. auris AR Bank #389, read-out: MIC
[10] = Candidozyma auris, C. auris AR Bank #381, read-out: MIC
[11] = Candidozyma auris, C. auris AR Bank #387, read-out: MIC
[12] = Candidozyma auris, C. auris AR Bank #385, read-out: MIC
[13] = Candidozyma auris, C. auris AR Bank #386, read-out: MIC
[14] = Candidozyma auris, C. auris AR Bank #388, read-out: MIC
[15] = Candidozyma auris, C. auris AR Bank #382, read-out: MIC
[16] = Candidozyma auris, C. auris AR Bank #383, read-out: MIC
[17] = C. auris AR Bank # 389 (Table 2B)
[18] = C. auris AR Bank # 381 (Table 2B)
[19] = C. auris AR Bank # 387 (Table 2B)
[20] = C. auris AR Bank # 385 (Table 2B)
[21] = C. auris AR Bank # 386 (Table 2B)
[22] = C. auris AR Bank # 388 (Table 2B)
[23] = C. auris AR Bank # 382 (Table 2B)
[24] = C. auris AR Bank # 383 (Table 2B)

Structure (SMILES) | MIC (C. auris AR Bank #389; [9]) | MIC (C. auris AR Bank #381; [10]) | MIC (C. auris AR Bank #387; [11]) | MIC (C. auris AR Bank #385; [12]) | MIC (C. auris AR Bank #386; [13]) | MIC (C. auris AR Bank #388; [14]) | MIC (C. auris AR Bank #382; [15]) | MIC (C. auris AR Bank #383; [16]) | also measured
COc1ccc(NNC(=O)c2nc(F)ccc2F)cc1 [Compound 8f] | – | – | – | – | – | – | – | – | MIC (C. auris AR Bank #389; [1]): 0.98 µg/mL (≈ 3.51 µM); MIC (C. auris AR Bank #381; [2]): 0.98 µg/mL (≈ 3.51 µM); MIC (C. auris AR Bank #387; [3]): 0.98 µg/mL (≈ 3.51 µM); MIC (C. auris AR Bank #385; [4]): 0.49 µg/mL (≈ 1.75 µM); MIC (C. auris AR Bank #386; [5]): 0.98 µg/mL (≈ 3.51 µM); MIC (C. auris AR Bank #388; [6]): 0.98 µg/mL (≈ 3.51 µM); MIC (C. auris AR Bank #382; [7]): 0.98 µg/mL (≈ 3.51 µM); MIC (C. auris AR Bank #383; [8]): 1.95 µg/mL (≈ 6.98 µM)
O=C(NNc1ccc(F)cc1F)c1cccc(F)n1 [Compound 5g] | – | – | – | – | – | – | – | – | MIC (C. auris AR Bank #389; [1]): 3.9 µg/mL (≈ 14.6 µM); MIC (C. auris AR Bank #381; [2]): 3.9 µg/mL (≈ 14.6 µM); MIC (C. auris AR Bank #387; [3]): 1.95 µg/mL (≈ 7.3 µM); MIC (C. auris AR Bank #385; [4]): 3.9 µg/mL (≈ 14.6 µM); MIC (C. auris AR Bank #386; [5]): 1.95 µg/mL (≈ 7.3 µM); MIC (C. auris AR Bank #388; [6]): 3.9 µg/mL (≈ 14.6 µM); MIC (C. auris AR Bank #382; [7]): 0.98 µg/mL (≈ 3.67 µM); MIC (C. auris AR Bank #383; [8]): 1.95 µg/mL (≈ 7.3 µM)
COc1ccc(NNC(=O)c2ccccn2)cc1 [Compound 2f] | 0.24 µg/mL (≈ 0.987 µM) | 1.95 µg/mL (≈ 8.02 µM) | 0.49 µg/mL (≈ 2.01 µM) | 0.98 µg/mL (≈ 4.03 µM) | 0.24 µg/mL (≈ 0.987 µM) | 0.49 µg/mL (≈ 2.01 µM) | 1.95 µg/mL (≈ 8.02 µM) | 1.95 µg/mL (≈ 8.02 µM) | –
COc1cccc(NNC(=O)c2ccc(F)cn2)c1 [Compound 3c] | – | – | – | – | – | – | – | – | MIC (C. auris AR Bank #389; [17]): 0.98 μg/mL^−1; MIC (C. auris AR Bank #381; [18]): 0.98 μg/mL^−1; MIC (C. auris AR Bank #387; [19]): 0.98 μg/mL^−1; MIC (C. auris AR Bank #385; [20]): 0.49 μg/mL^−1; MIC (C. auris AR Bank #386; [21]): 0.98 μg/mL^−1; MIC (C. auris AR Bank #388; [22]): 0.98 μg/mL^−1; MIC (C. auris AR Bank #382; [23]): 0.49 μg/mL^−1; MIC (C. auris AR Bank #383; [24]): 0.98 μg/mL^−1
O=C(NNc1cc(F)cc(F)c1)c1ccccn1 [Compound 2i] | 0.24 µg/mL (≈ 0.963 µM) | 0.98 µg/mL (≈ 3.93 µM) | 0.24 µg/mL (≈ 0.963 µM) | 0.24 µg/mL (≈ 0.963 µM) | ≤ 0.06 µg/mL | 0.24 µg/mL (≈ 0.963 µM) | 0.12 µg/mL (≈ 0.482 µM) | 0.24 µg/mL (≈ 0.963 µM) | –
O=C(NNc1ccc(F)cc1F)c1cnccn1 [Compound 9g] | 0.49 µg/mL (≈ 1.96 µM) | 3.9 µg/mL (≈ 15.6 µM) | 0.49 µg/mL (≈ 1.96 µM) | 0.98 µg/mL (≈ 3.92 µM) | 0.49 µg/mL (≈ 1.96 µM) | 0.49 µg/mL (≈ 1.96 µM) | 1.95 µg/mL (≈ 7.79 µM) | 0.98 µg/mL (≈ 3.92 µM) | –
COc1cccc(NNC(=O)c2ccccn2)c1 [Compound 2c] | – | – | – | – | – | – | – | – | MIC (C. auris AR Bank #389; C. auris AR Bank #389): 0.49 μg/mL^−1; MIC (C. auris AR Bank #381; C. auris AR Bank #381): 3.9 μg/mL^−1; MIC (C. auris AR Bank #387; C. auris AR Bank #387): 0.49 μg/mL^−1; MIC (C. auris AR Bank #385; C. auris AR Bank #385): 3.9 μg/mL^−1; MIC (C. auris AR Bank #386; C. auris AR Bank #386): 0.49 μg/mL^−1; MIC (C. auris AR Bank #388; C. auris AR Bank #388): 3.9 μg/mL^−1; MIC (C. auris AR Bank #382; C. auris AR Bank #382): 0.98 μg/mL^−1; MIC (C. auris AR Bank #383; C. auris AR Bank #383): 0.98 μg/mL^−1
O=C(NNc1cc(F)ccc1F)c1ccccn1 [Compound 2h] | 0.49 µg/mL (≈ 1.97 µM) | 1.95 µg/mL (≈ 7.82 µM) | 0.49 µg/mL (≈ 1.97 µM) | 0.49 µg/mL (≈ 1.97 µM) | 0.12 µg/mL (≈ 0.482 µM) | 0.49 µg/mL (≈ 1.97 µM) | 0.24 µg/mL (≈ 0.963 µM) | 0.49 µg/mL (≈ 1.97 µM) | –
O=C(NNc1ccc(Cl)cc1)c1ccc(F)cn1 [Compound 3e] | – | – | – | – | – | – | – | – | MIC (C. auris AR Bank #389; [17]): 7.8 μg/mL^−1; MIC (C. auris AR Bank #381; [18]): 7.8 μg/mL^−1; MIC (C. auris AR Bank #387; [19]): 7.8 μg/mL^−1; MIC (C. auris AR Bank #385; [20]): 1.95 μg/mL^−1; MIC (C. auris AR Bank #386; [21]): 7.8 μg/mL^−1; MIC (C. auris AR Bank #388; [22]): 7.8 μg/mL^−1; MIC (C. auris AR Bank #382; [23]): 7.8 μg/mL^−1; MIC (C. auris AR Bank #383; [24]): 3.9 μg/mL^−1
O=C(NNc1ccc(F)cc1F)c1ccccn1 [Compound 2g] | 0.24 µg/mL (≈ 0.963 µM) | 0.49 µg/mL (≈ 1.97 µM) | 0.12 µg/mL (≈ 0.482 µM) | 0.49 µg/mL (≈ 1.97 µM) | 0.49 µg/mL (≈ 1.97 µM) | 0.12 µg/mL (≈ 0.482 µM) | 0.49 µg/mL (≈ 1.97 µM) | 0.49 µg/mL (≈ 1.97 µM) | –

From patent publication US20240425464A1, “Substituted Monohydrazides as Potent Antifungal Agents” (University of Kentucky Research Foundation, priority 2023, published 2024)
